Measured values published in patent US10758522B2, “Small molecule analogs of the nemo binding peptide” (THE SCRIPPS RESEARCH INSTITUTE, priority 2015, dated 2020).
“Also recorded” adds a separate entry of the source.

Experiments:
[1] = test system: K14-Cre; Ercc1−/flox mice; assay: Topical treatment of skin aging in K14-Cre; Ercc1−/flox mice; format: in vivo, mouse; conditions: daily
Protocol: To test the ability of NBDA-1 to function in vivo, the drug was tested in several models of aging. In FIG. 12, the ability of topical treatment of NBDA-1 to reduce signs of skin aging is shown. Areas on the back of normal mice or mice with enhanced skin aging (K14-Cre; Ercc1^−/flox) were shaved and then treated daily with drugs or control creams.

[2] = test system: embryonic fibroblasts from Ercc1−/− mice; assay: Senescence rescue assay in ERCC1-deficient murine embryonic fibroblasts (SA-ß-gal); format: cell-based, mouse; conditions: oxidative stress conditions (20% O2)
From the text: In an attempt to identify new drugs able to improve healthspan, we have developed an assay for screening for drugs able to rescue primary “aged” fibroblasts from senescence. This assay uses murine embryonic fibroblasts (MEFs) from mice with accelerated aging due to a deficiency in an important DNA repair pathway, ERCC1-XPF. These MEFs undergo rapid senescence in culture, especially when grown under the high oxygen conditions that confers oxidative stress (FIGS. 18 and 19).

[3] = test system: NF-κB; assay: Firefly luciferase NF-κB reporter assay in TNF-α-stimulated HEK293 cells; format: cell-based; conditions: for inhibition of TNF-α-induced NF-κB activation (luciferase reporter), in words: 293 NF-κB luciferase reporter cells, 10 ng/ml TNF-α, compound 12909780 at 100 μM
Protocol: This model was used to screen a subset of the drug-like ZINC 8.0 database set (˜900,000 compounds) (Irwin et al., 2005). We were able to identify 161 hits that matched at least 6 features out of eight of the pharmacophore model. […] Two compounds termed NBDA-1 (Zinc-13) and NBDA-2 (Zinc-5), successfully passed these filters (See FIG. 4) and were purchased for biological testing. The compounds were then tested for ability to inhibit TNF-alpha-mediated induction of NF-κB activity in a 293 cells stably modified with a NF-κB luciferase reporter.
The activation of NF-κB was then quantitated by measuring the level of luciferase activity. […] Also, protein extracts were prepared from the same cells and the level of phospho-IkB determined, a marker of IKK activity.
To test if the small molecules identified by the in silico screen inhibit NF-κB activation, a HEK293 cell line stably expressing a luciferase reporter driven by a synthetic, NF-κB-dependent promoter was utilized. To induce NF-κB activation, cells were treated with 10 ng/ml of TNF-α and harvested three hours post-treatment for analysis of luciferase activity. […] To determine if compound 12909780 inhibited NF-κB in a dose dependent manner, concentrations were tested at 0, 6.25, 25, 50 and 100 μM.
HEK293 cells stably transfected with luciferase reporter plasmid driven by NF-κB were seeded in 96-well plate in triplicate and pretreated with DMSO or varying small molecules at indicated concentration for 30 min, followed by the stimulation of 10 ng/ml of TNFα for 3 hr. Cell were washed with PBS once and harvested in passive lysis buffer. Luciferase assay (Promega) was performed using a luminometer according to the manufacturer's instructions.

[4] = test system: p-IκBα; assay: Western blot of IκBα phosphorylation after TNF-α; format: cell-based; conditions: 10 ng/ml TNF-α, 0, 5 and 10 min, 100 μM compound
Protocol: To confirm that the NBD mimetics reduce IKK activity, the extent of phosphorylation of the IKK target, IκBα, in response to 10 ng/ml of TNF-α was determined by Western blot at 0, 5 and 10 min after TNF-α stimulation. […] To determine if the mimetics also reduce NF-κB DNA binding activity, electrophoretic mobility shift assay (EMSA) was conducted both in vivo and in vitro.
HEK293 cells grown in a 6-well plate at 1×10^6 cells/well were left untreated or treated with 100 μM of ZINC12909780 or ZINC3369392 for 30 min, followed by 10 ng/ml of TNFα for 0, 5 and 10 min. Cells were then harvested for western blot. Cell lysate was prepared in RIPA buffer (20 mM Tris-HCl (pH 7.5), 150 mM NaCl, 1 mM Na^2EDTA, 1 mM EGTA, 1% NP-40, 1% sodium deoxycholate, 2.5 mM sodium pyrophosphate, 1 mM beta-glycerophosphate, 1 mM Na3VO4, 1 μg/ml leupeptin, 1× protease inhibitor cocktails (sigma) and 1× Halt phosphatase inhibitor cocktail (Thermo)). 30 ug of protein was resolved by MINI-PROTEAN TGX 4-15% SDS-PAGE. Blots were blocked in 5% non-fat milk. Primary antibodies were incubated at 4° C. overnight and secondary antibodies were incubated at room temperature for 1 hour. Anti-p-IκBα (1:1000 CST) and anti-IκBα (1:2000 CST) were used to assess NF-κB activation. Anti-GAPDH (1:5000 CST) was used as a loading control.

[5] = test system: IKKβ-NEMO interaction; assay: Immunoprecipitation of NEMO and IKKβ immunoblot in Raw 264.7 macrophages and HEK293 cells; format: cell-based; conditions: Raw 264.7 macrophages / HEK293; mimetics 100 μM, 8K-NBD 400 μM
Protocol: The NBD mimetics reduce the interaction between IKKg (NEMO) and IKKß. The indicated concentrations of the drugs were added to HEK 293 or Raw 264.7 cells and cell extracts prepared 30 minutes later. Following immunoprecipitation (IP) of NEMO, the Western was probed for IKKß.
After treatment with the mimetics or NBD peptide, NEMO was immunoprecipitated by an anti-NEMO antibody and IKKβ was immunoblotted to determine the binding of IKKβ to NEMO.
HEK293 or Raw264.7 cells were seeded at 1×10^6 cells/well in 6-well plates and treated with vehicle, small molecule or NBD peptide for indicated time. Cells were lysed in NP-40 lysis buffer supplemented with 1× protease inhibitor cocktails (sigma). Protein was immunoprecipitated by incubating 150 μg of lysate with 1 μg of anti-NEMO antibody (Santa Cruz) on a rotating shaker at 4° C. for 4 hrs, followed by incubation with 20 ul of Protein A agarose beads (ThermoFisher) for 1 hr. Beads were washed in NP40 buffer 3 times and PBS once. Protein was then denatured in SDS-sample buffer and resolved by MINI-PROTEAN TGX 4-15% SDS-PAGE. Anti-IKKβ (1:1000 CST) was used to assess binding of IKKβ to NEMO and anti-NEMO (1:1000 CST) or IgG were used to as a loading control.

[6] = Pharmacokinetics study after ip injection; format: in vivo; conditions: mice, 10 mg/kg ip, 2 hr
Protocol: To determine the stability of the NBD mimetics in vivo, the pharmacokinetics of the compounds was determined in serum following ip injection.
The pharmacokinetic profiles of the NBD mimetics were determined in male C57BL/6J mice (n=3). The drugs were formulated in 10:10:80 of DMSO:Tween 80:water and were dosed by intraperitoneal injection at a final dose of 10 mg/kg. Blood, brain, muscle, spleen, and liver were collected 2 hr post-treatment and were analyzed by mass spectrometry by following the protocol described in ref. 215 (42).

Row | SMILES | epidermal thickness / skin architecture [1] | senescence (SA-ß-gal staining) of ERCC1-deficient MEFs [2] | dose-dependent inhibition of TNF-α-induced NF-κB activation, in words ([3]; 0, 6.25, 25, 50 and 100 μM) | inhibition of TNF-α-induced NF-κB activation (luciferase reporter), in words [3] | inhibition of TNF-α-induced NF-κB activation (luciferase reporter), in words ([3]; listed as Zinc-13) | level of phospho-IκBα / phosphorylation of IkB [4] | level of phospho-IκBα / phosphorylation of IkB ([4]; listed as Zinc-13) | level of phospho-IκBα / phosphorylation of IkB ([4]; listed as compound 12909780) | disruption of IKKβ-NEMO interaction (NEMO IP, IKKβ blot) [5] | stability in serum after ip injection ([6]; 10 mg/kg) | stability in serum after ip injection [6]
1 | Nc1ncccc1C(=O)OCC(=O)Nc1ccc(Cl)cc1F [NBDA-1, 2-((4-chloro-2-fluorophenyl)amino)-2-oxoethyl 2-aminonicotinate] | improved epidermal thickness to a greater extent than the peptide on which it was modeled | reduced senescence | only high concentrations (50 and 100 μM) of the compound were able to inhibit TNF-α-induced NF-κB activation significantly | slightly downregulated NF-κB activation | able to reduce activation of NF-κB by TNF-alpha at low micromolar ranges | reduces the level of phospho-IκB | reduced phosphorylation of IkB | mild reduction | – | – | –
2 | O=C(CNc1ccc(Cl)cn1)NCCc1cccc(Br)c1 [SR12343, N-(3-bromophenethyl)-2-((5-chloropyridin-2-yl)amino)acetamide] | – | – | – | – | – | – | – | – | strongest activity; also recorded: disruption of the association between NEMO and IKK-β | moderate stability; also recorded: less stable compared to SR12460 | –
3 | O=C(CNCCc1cc(F)cc(F)c1)Nc1ccc(Cl)cn1 [SR12460, N-(5-chloropyridin-2-yl)-2-((3,5-difluorophenethyl)amino)acetamide] | – | – | – | – | – | – | – | – | disruption of the association between NEMO and IKK-β | – | significant stability 2 hr after injection
